The values that follow come from ChEMBL document CHEMBL1201862, “PubChem BioAssay data set” (2004).

Test systems include A498; Malme-3M; SK-MEL-2; SK-OV-3; DU-145; U-251; NCI-H460; SNB-75; M14; SF-268; UACC-257; UO-31; SF-539; KM12; K562; PC-3; TK-10; MCF7; A549; MDA-N.
Assay in all cases: NCI anticancer screen, dose series, 48 h

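Tested at 5 concentrations; 48 h exposure; 96-well plates; endpoints linearly interpolated, else capped at highest concentration. GI50 is the concentration that inhibits growth by half.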 Activity calls are given as the source filed them. Cut-off read from the data, not from the text of the source: active = GI50 up to about 1.1 µM and inactive = higher. Where only a bound is given, the exact number is not on record here.

In the case of `CCCNC(=O)CCC(C)[C@H]1CCC2C3C(C[C@H](OC(C)=O)[C@@]21C)[C@@]1(C)CCC2(C[C@H]1C[C@H]3OC(C)=O)OOC1(CCCCC1)OO2` (stereo not given in full), the GI50 is 33.7 µM (inactive) in the experiment on A498; 2.13 µM (inactive) with Malme-3M; 2 µM (inactive) in the experiment with SK-MEL-2; 24.9 µM (inactive) in the experiment on SK-OV-3; 1.85 µM (inactive) in the experiment on DU-145; 1.85 µM (inactive) with U-251. Besides, the GI50 in the experiment on NCI-H460 was 1.67 µM (inactive); in the experiment on SNB-75, 1.9 µM (inactive); in the experiment with M14, 5.02 µM (inactive); with SF-268, 2.02 µM (inactive); in the experiment with UACC-257, 5.3 µM (inactive); with UO-31, 0.0893 µM (active). The GI50 with SF-539 is 3.66 µM (inactive); with KM12, 1.44 µM (inactive); in the experiment on K562 it was 4.05 µM (inactive); in the experiment on PC-3 it was 1.69 µM (inactive); in the experiment on TK-10, 1.95 µM (inactive); in the experiment on MCF7, 3.04 µM (inactive). The GI50 was 0.416 µM (active) with A549 and 3.05 µM (inactive) in the experiment with MDA-N.
As for `O[C@@H]1C=C[C@]23CCN(Cc4cc5c(cc42)OCO5)[C@@H]3C1`, the GI50 in the experiment on A498 was > 100 µM (inactive); in the experiment on Malme-3M it was > 100 µM (inactive); with SK-MEL-2, 31.3 µM (inactive); in the experiment with SK-OV-3, > 100 µM (inactive); with DU-145, 24.7 µM (inactive); in the experiment on U-251 it was 41.2 µM (inactive). Also, the GI50 with NCI-H460 is 42.7 µM (inactive); with SNB-75 it was 20.5 µM (inactive); in the experiment with M14, > 100 µM (inactive); with SF-268, > 100 µM (inactive); with UACC-257, 92 µM (inactive); in the experiment on UO-31, 48.2 µM (inactive). In addition, the GI50 in the experiment with SF-539 was > 100 µM (inactive); with KM12, 52.5 µM (inactive); in the experiment on K562, > 100 µM (inactive); in the experiment with PC-3, 45.2 µM (inactive); in the experiment on TK-10 it was 49.8 µM (inactive); in the experiment with MCF7, 52.1 µM (inactive). Besides, the GI50 in the experiment on A549 is 46.6 µM (inactive); in the experiment with MDA-N it was 69.3 µM (inactive).
